From patent US9512059B2, “Killing of bed bugs” (BEDOUKIAN RESEARCH, INC., priority 2012, dated 2016) come the findings set out here.

This series relates to bed bugs. The series can be described thus: forced exposure toxicity test on treated filter paper circles. Format: in vivo, Cimex species. As to conditions: compound diluted 5% in acetone, bed bug mortality at 24 hours. On the procedure: Toxicity of compounds of structure (I) was determined by forced exposure testing under the following protocol. Five filter paper circles were laid on a flat surface and treated with the test compounds. Five replicates of five bed bugs were released onto each of the treated paper circles. Petri dish bottoms with circular openings were placed over the treated paper circles and served as the exposure arenas. The sides of the Petri dish bottoms were also painted with Fluon to prevent the bed bugs from climbing the sides. The bed bugs were thus confined to the treated paper circles for the duration of the test. Observations were made for mortality of the bed bugs at 24 hours.
In the case of `CCCCC1CC(=O)C=C(C)C1` (centres unmarked) [3-Methyl-5-Butyl-2-Cyclohexen-1-one], the “Mortality @ 24 hours” value worked out at 50%. Then `CCC1CC(=O)C=C(C)C1` (centres unmarked) [3-Methyl-5-Ethyl-2-Cyclohexenone], with 78%.

Regarding `CCCC1CC(=O)C=C(C)C1` (centres unmarked) [3-Methyl-5-propyl-2-cyclohexenone], the “Mortality @ 24 hours” value was 100%. Then `CC1=CC(O)CC(CC(C)C)C1` (centres unmarked) [3-Methyl-5-Isobutyl-2-cyclohexenol], with 10%; and `CCCC1CC(C)=CC(O)C1` (centres unmarked) [3-Methyl-5-propyl-2-cyclohexenol], with 60%.
